Measured values: paper PMC9415509, “Pro-Apoptotic Antitumoral Effect of Novel Acridine-Core Naphthoquinone Compounds against Oral Squamous Cell Carcinoma” (Molecules, 2022)
Read-outs that look alike come from different tables or passages of the source.

Assays:
[1] = Solubility observation during MTT testing; assay type: physicochemical
Experimental: All 26 acridine-core naphthoquinone compounds were submitted to the MTT assay to assess their cytotoxicity. […] These compounds were excluded from further biological experimentation. First, the assay was conducted on the SCC9 OSCC cell line and the results were analyzed by a nonlinear regression curve to determine the value of the half maximal inhibitory concentration (IC50). […] Anticancer activities of these compounds are reported here for the first time.

SCC9 (OSCC cell) = assay: MTT cell viability assay (cytotoxicity), SCC9; assay type: cell-based, human; settings: for IC50: read-out: SCC9—Oral Cancer IC50; for SCC9 S.I.: IC50 normal oral fibroblasts / IC50 SCC9
Experimental: (§1) Cells and reagents. Human SCC-4, SCC-9, and SCC-25 cells, derived from a human oral tongue SCC (squamous cell carcinoma) were obtained from the ATCC (CRL-1624, CRL-1629, and CRL-1628, respectively) and maintained in 1:1 DMEM/F12 (Dulbecco’s modified Eagle medium and Ham’s F12 medium; Gibco (Thermo Fisher, Waltham, MA, USA)) supplemented with 10% (v/v) FBS (fetal bovine serum; Invitrogen, Thermo Fisher, Waltham, MA, USA) and 400 ng/mL hydrocortisone (Sigma-Aldrich Co., St. Louis, MO, USA). Primary normal human gingival fibroblasts were obtained from the ATCC (PCS-201-018) and maintained in DMEM supplemented with 10% (v/v) FBS and were used in a maximum of six passages. The cells were grown in a humidified environment containing 5% CO2 at 37 °C. […] Carboplatin stock was prepared in water (Fauldcarbo®; LibbsFarmacêutica, São Paulo, SP, Brazil) and was used as a standard anticancer compound.
(§2) Cell viability assay (cytotoxicity) and compound stability assay. The viability of SCC cell lines and primary human fibroblast cells was evaluated using the MTT assay as in [48]. Briefly, the cells were grown in triplicates in 96-well plates (5 × 10^3 cells/well) until confluence. Then, the medium was removed, fresh medium was added, and the cells were returned to the incubator in the presence of different compounds. DMSO at the same concentrations was used as a 100% cell viability control. After 48 h, the cells were incubated with 5 mg/mL MTT reagent (3-(4,5-dimethyl-2-thiazolyl)-2,5-diphenyl-2-H-tetrazolium bromide) (Sigma-Aldrich Co., St. Louis, MO, USA) for 3.5 h. After that, formazan crystals were dissolved in MTT solvent solution (DMSO/methanol 1:1 v/v) and the absorbance at 560 nm was evaluated using an EPOCH microplate spectrophotometer (BioTek Instruments, Winooski, VT, USA) with the background absorbance at 670 nm subtracted.
(§3) Statistical analysis, IC50 calculation. The data are presented as means ±\SD. IC50 values for the MTT assays were obtained by nonlinear regression using the […] 5.0 program (Intuitive Software for Science, San Diego, CA, USA) from at least three independent experiments. A dose–response (inhibitor) vs. response curve using the least squares method was used to determine the IC50, SD, and R^2 of the data. The selectivity index was calculated as SI = IC50 of the compound in normal oral fibroblast cells/IC50 of the same compound for each oral cancer cell line (SCC-4, SCC-9, and SCC-25) and the mean was calculated when indicated.

SCC4 OSCC cell line = assay: MTT cell viability assay (cytotoxicity), SCC4; assay type: cell-based, human; settings: for IC50: read-out: Oral Tumor Cells SCC4 IC50; for SCC4 S.I.: IC50 normal oral fibroblasts / IC50 SCC4
Experimental: as §1, §2, §3

SCC25 OSCC cell line = assay: MTT cell viability assay (cytotoxicity), SCC25; assay type: cell-based, human; settings: for IC50: read-out: Oral Tumor Cells SCC25 IC50; for SCC25 S.I.: IC50 normal oral fibroblasts / IC50 SCC25
Experimental: as §1, §2, §3

[2] = system: Primary normal human gingival fibroblasts; assay: MTT cell viability assay, normal fibroblasts; assay type: cell-based; settings: 48 h, read-out: Primary Gingival Fibroblast IC50
Experimental: as §1, §2, §3

[3] = formed crystals at low concentrations in MTT assay
[4] = Homo sapiens, SCC-9, SCC9, 48 h, MTT (Table 1)
[5] = Homo sapiens, SCC-4, SCC4, 48 h, MTT
[6] = Homo sapiens, SCC-25, SCC25, 48 h, MTT
[7] = Homo sapiens, Fibroblast, primary gingival fibroblasts, MTT

Row | melting point | solubility [1, 3] | Compound | IC50 (SCC9 (OSCC cell); [4]) | also measured
1 | 263 to 264 °C | highly insoluble | Cc1ccc(C2C3=C(CCCC3=O)NC3=C2C(=O)c2ccccc2C3=O)c(C)c1 (centres unmarked) [5i, 12-(2,4-dimethylphenyl)-3,4-dihydrobenzo[b]acridine-1,6,11(2H,5H,12H)-trione] | – | –
2 | 257 to 258 °C | – | O=C1CCCC2=C1C(c1ccc(Br)cc1)C1=C(N2)C(=O)c2ccccc2C1=O (centres unmarked) [5h, 12-(4-bromophenyl)-3,4-dihydrobenzo[b]acridine-1,6,11(2H,5H,12H)-trione] | 7.63 µM | –
3 | 255 to 256 °C | highly insoluble | O=C1CCCC2=C1C(c1ccc(F)cc1)C1=C(N2)C(=O)c2ccccc2C1=O (centres unmarked) [5f, 12-(4-fluorophenyl)-3,4-dihydrobenzo[b]acridine-1,6,11(2H,5H,12H)-trione] | – | –
4 | 238 to 239 °C | – | COc1ccc(C2C3=C(CC(C)(C)CC3=O)NC3=C2C(=O)c2ccccc2C3=O)cc1OC (centres unmarked) [4l, 12-(3,4-dimethoxyphenyl)-3,3-dimethyl-3,4-dihydrobenzo[b]acridine-1,6,11(2H,5H,12H)-trione] | 4.46 µM | –
5 | – | highly insoluble | O=C1CCCC2=C1C(c1ccccc1Cl)C1=C(N2)C(=O)c2ccccc2C1=O (centres unmarked) [5b, 12-(2-chlorophenyl)-3,4-dihydrobenzo[b]acridine-1,6,11(2H,5H,12H)-trione] | – | –
6 | – | – | O=C1CCCC2=C1C(c1ccc(Cl)cc1Cl)C1=C(N2)C(=O)c2ccccc2C1=O (centres unmarked) [5e, 12-(2.4-dichlorophenyl)-3,4-dihydrobenzo[b]acridine-1,6,11(2H,5H,12H)-trione] | 4.75 µM | –
7 | – | – | 12-(3,3-dimethylphenyl)-3,4-dihydrobenzo[b]acridine-1,6,11(2H,5H,12H)-trione [4a] | – | solubility [1]: highly insoluble
8 | – | highly insoluble | CC1(C)CC(=O)C2=C(C1)NC1=C(C(=O)c3ccccc3C1=O)C2c1ccccc1Cl (centres unmarked) [4b, 12-(2-chlorophenyl)-3,3-dimethyl-3,4-dihydrobenzo[b]acridine-1,6,11(2H,5H,12H)-trione] | – | –
9 | 236 to 237 °C | – | COc1cc(C2C3=C(CCCC3=O)NC3=C2C(=O)c2ccccc2C3=O)cc(OC)c1OC (centres unmarked) [5m, 12-(3,4,5-trimethoxyphenyl)-3,4-dihydrobenzo[b]acridine-1,6,11(2H,5H,12H)-trione] | 3.32 µM | –
10 | 260 to 261 °C | highly insoluble | CC1(C)CC(=O)C2=C(C1)NC1=C(C(=O)c3ccccc3C1=O)C2c1c(F)c(F)c(F)c(F)c1F (centres unmarked) [4g, 12-(perfluorophenyl)-3,3-dimethyl-3,4-dihydrobenzo[b]acridine-1,6,11(2H,5H,12H)-trione] | – | –
11 | 287 to 288 °C | – | CC1(C)CC(=O)C2=C(C1)NC1=C(C(=O)c3ccccc3C1=O)C2c1ccc(Cl)cc1 (centres unmarked) [4d, 12-(4-chlorophenyl)-3,3-dimethyl-3,4-dihydrobenzo[b]acridine-1,6,11(2H,5H,12H)-trione] | 51.6 µM | –
12 | 219 to 220 °C | – | COc1ccc(OC)c(C2C3=C(CCCC3=O)NC3=C2C(=O)c2ccccc2C3=O)c1 (centres unmarked) [5k, 12-(2,5-dimethoxyphenyl)-3,4-dihydrobenzo[b]acridine-1,6,11(2H,5H,12H)-trione] | 7.2 µM | –
13 | – | – | COc1ccc(C2C3=C(CCCC3=O)NC3=C2C(=O)c2ccccc2C3=O)c(OC)c1 (centres unmarked) [5j, 12-(2,4-dimethoxyphenyl)-3,4-dihydrobenzo[b]acridine-1,6,11(2H,5H,12H)-trione] | 6.84 µM | –
14 | 249 to 251 °C | – | CC1(C)CC(=O)C2=C(C1)NC1=C(C(=O)c3ccccc3C1=O)C2c1cccc(Cl)c1 (centres unmarked) [4c, 12-(3-chlorophenyl)-3,3-dimethyl-3,4-dihydrobenzo[b]acridine-1,6,11(2H,5H,12H)-trione] | 14.7 µM | –
15 | 228 to 230 °C | – | COc1ccc(C2C3=C(CCCC3=O)NC3=C2C(=O)c2ccccc2C3=O)cc1OC (centres unmarked) [5l, 12-(3,4-dimethoxyphenyl)-3,4-dihydrobenzo[b]acridine-1,6,11(2H,5H,12H)-trione] | 5.9 µM | –
16 | – | – | CC(C)=CCC1=C(O)C(=O)c2ccccc2C1=O [Lapachol, lapachol] | 58.3 µM | IC50 (SCC4 OSCC cell line; [5]): 76.9 µM; SCC4 S.I. (SCC4 OSCC cell line): 1.4; IC50 (SCC25 OSCC cell line; [6]): 93.8 µM; SCC25 S.I. (SCC25 OSCC cell line): 1.1; IC50 [2, 7]: 106 µM; SCC9 S.I. (SCC9 (OSCC cell)): 1.8
17 | – | – | COc1cccc2c1C(=O)c1c(O)c3c(c(O)c1C2=O)C[C@@](O)(C(=O)CO)C[C@@H]3O[C@H]1C[C@H](N)[C@H](O)[C@H](C)O1 [Doxorubicin, doxorubicin] | 7.8 µM | IC50 (SCC4 OSCC cell line; [5]): 4.56 µM; SCC4 S.I. (SCC4 OSCC cell line): 2.7; IC50 (SCC25 OSCC cell line; [6]): 1.27 µM; SCC25 S.I. (SCC25 OSCC cell line): 9.7; IC50 [2, 7]: 12.3 µM; SCC9 S.I. (SCC9 (OSCC cell)): 1.6
18 | 293 to 295 °C | – | CC1(C)CC(=O)C2=C(C1)NC1=C(C(=O)c3ccccc3C1=O)C2c1ccc(Br)cc1 (centres unmarked) [4h, 12-(4-bromophenyl)-3,3-dimethyl-3,4-dihydrobenzo[b]acridine-1,6,11(2H,5H,12H)-trione] | 5.86 µM | –
19 | 217 to 218 °C | – | O=C1CCCC2=C1C(c1cccc(Cl)c1)C1=C(N2)C(=O)c2ccccc2C1=O (centres unmarked) [5c, 12-(3-chlorophenyl)-3,4-dihydrobenzo[b]acridine-1,6,11(2H,5H,12H)-trione] | 8.93 µM | –
20 | – | – | N.N.O=C([O-])C1(C(=O)[O-])CCC1.[Pt+2] [Carboplatin, carboplatin] | – | SCC4 S.I. (SCC4 OSCC cell line): 3.1; IC50 (SCC4 OSCC cell line; SCC4, 48 h, MTT): 180 µM; SCC25 S.I. (SCC25 OSCC cell line): 3.0; IC50 (SCC25 OSCC cell line; SCC25, 48 h, MTT): 186 µM; IC50 ([2]; primary gingival fibroblasts, MTT): 560 µM; SCC9 S.I. (SCC9 (OSCC cell)): 2.2; IC50 (SCC9 (OSCC cell); SCC9, 48 h, MTT (Table 1)): 250 µM
21 | 287 to 288 °C | highly insoluble | O=C1CCCC2=C1C(c1ccccc1)C1=C(N2)C(=O)c2ccccc2C1=O (centres unmarked) [5a, 12-phenyl-3,4-dihydrobenzo[b]acridine-1,6,11(2H,5H,12H)-trione] | – | –
22 | – | highly insoluble | Cc1ccc(C2C3=C(CC(C)(C)CC3=O)NC3=C2C(=O)c2ccccc2C3=O)c(C)c1 (centres unmarked) [4i, 12-(2,4-dimethylphenyl)-3,3-dimethyl-3,4-dihydrobenzo[b]acridine-1,6,11(2H,5H,12H)-trione] | – | –
23 | – | – | CC(C)=CC[C@@H](O)C1=CC(=O)c2c(O)ccc(O)c2C1=O [Shikonin, shikonin] | – | IC50 (SCC4 OSCC cell line; Homo sapiens, SCC-4, 48 h): 3.19 µM; SCC4 S.I. (SCC4 OSCC cell line): 0.8; IC50 (SCC25 OSCC cell line; Homo sapiens, SCC-25, 48 h): 2.47 µM; SCC25 S.I. (SCC25 OSCC cell line): 1.0; IC50 ([2]; Homo sapiens, Fibroblast): 2.48 µM; IC50 (SCC9 (OSCC cell); Homo sapiens, SCC-9, 48 h): 1.22 µM; SCC9 S.I. (SCC9 (OSCC cell)): 2.0
24 | – | highly insoluble | O=C1CCCC2=C1C(c1c(F)c(F)c(F)c(F)c1F)C1=C(N2)C(=O)c2ccccc2C1=O (centres unmarked) [5g, 12-(perfluorophenyl)-3,4-dihydrobenzo[b]acridine-1,6,11(2H,5H,12H)-trione] | – | –
25 | 295 to 297 °C | highly insoluble | CC1(C)CC(=O)C2=C(C1)NC1=C(C(=O)c3ccccc3C1=O)C2c1ccc(F)cc1 (centres unmarked) [4f, 12-(4-fluorophenyl)-3,3-dimethyl-3,4-dihydrobenzo[b]acridine-1,6,11(2H,5H,12H)-trione] | – | –
26 | 230 to 231 °C | – | O=C1CCCC2=C1C(c1ccc(Cl)cc1)C1=C(N2)C(=O)c2ccccc2C1=O (centres unmarked) [5d, 12-(4-chlorophenyl)-3,4-dihydrobenzo[b]acridine-1,6,11(2H,5H,12H)-trione] | 2.21 µM | –
